This note sets out measurements from PubChem BioAssay (NCI).

Among the test systems are SNB-75 CNS; TK-10 renal; SF-539 CNS; CAKI-1 renal; HCT-15 colon; HL-60(TB) leukemia; MALME-3M melanoma; BT-549 breast; CCRF-CEM leukemia; A498 renal.
Holding throughout (assay): inhibition of tumour cell growth, NCI panel, 48 h

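Briefly, cells in 96-well plates were exposed to five compound concentrations for 48 h, and endpoints were estimated by linear interpolation. GI50: concentration for 50% inhibition of growth. TGI denotes the concentration required for complete inhibition of growth.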

On to `CCOC(=O)c1nc2ccc(Cl)cc2c2c1Cc1ccccc1-2`, for which the TGI in the assay on SNB-75 CNS, with TK-10 renal, in the assay on SF-539 CNS, in the assay on CAKI-1 renal and with HCT-15 colon was greater than 100 µM each time.

Consider `N=c1c2c(C(N)=O)cn(C3OC(CO)C(O)C3O)c2ncn1O` (centres undefined), for which the GI50 in the assay on HL-60(TB) leukemia was 0.191 µM. The TGI stood at 0.659 µM in the assay on HL-60(TB) leukemia; 4.85 µM in the assay on SNB-75 CNS; 0.426 µM in the assay on TK-10 renal; 0.477 µM in the assay with MALME-3M melanoma; 2.02 µM with SF-539 CNS; 4.61 µM in the assay with BT-549 breast. The TGI in the assay with CAKI-1 renal stood at 0.399 µM; with CCRF-CEM leukemia, 1.46 µM; in the assay on HCT-15 colon, 0.388 µM.

As to `CCOC(=O)N(Cc1cccs1)c1cc(OC)c(OC)c(OC)c1`, the TGI in the assay with HL-60(TB) leukemia, with SNB-75 CNS, with TK-10 renal, in the assay on MALME-3M melanoma, in the assay on A498 renal and in the assay on BT-549 breast was greater than 100 µM each time. The TGI was greater than 100 µM with CAKI-1 renal, 69.3 µM in the assay on CCRF-CEM leukemia and greater than 100 µM in the assay with HCT-15 colon.

For the compound `Cn1c(=S)[nH]c2sc3c(c2c1=O)CCSC3`, the TGI with HL-60(TB) leukemia was 43.3 µM; in the assay with SNB-75 CNS, greater than 100 µM; in the assay with TK-10 renal, greater than 100 µM; in the assay with MALME-3M melanoma, greater than 100 µM; in the assay with SF-539 CNS it was greater than 100 µM; in the assay with A498 renal, greater than 100 µM. Besides, the TGI in the assay on BT-549 breast, in the assay with CAKI-1 renal and in the assay on HCT-15 colon was greater than 100 µM in each case.

`N=C(N)c1ccc(-c2ccc(-c3cc(Cl)cc(Cl)c3)o2)nc1`: the GI50 was 2.42 µM in the assay with HL-60(TB) leukemia; 1.64 µM in the assay on SNB-75 CNS; 1.87 µM with TK-10 renal; 1.76 µM in the assay with SF-539 CNS; 1.47 µM in the assay with A498 renal; 1.76 µM in the assay with CAKI-1 renal. The GI50 in the assay on HCT-15 colon was 1.8 µM. Besides, the TGI in the assay on HL-60(TB) leukemia worked out at 4.62 µM; in the assay on SNB-75 CNS, 3.15 µM; in the assay with TK-10 renal, 3.5 µM; in the assay with SF-539 CNS, 3.25 µM; with A498 renal, 3.22 µM; in the assay on CAKI-1 renal it was 3.35 µM. In addition, the TGI in the assay with HCT-15 colon came out at 3.46 µM.

On to `COc1ccc(/C(=C2/O[C@@H]([C@H]3COC(C)(C)O3)[C@H]3OC(C)(C)O[C@@H]23)c2cc(OC)c(OC)c(OC)c2)cc1O`, for which the GI50 in the assay with HL-60(TB) leukemia was 6.48 µM; with SNB-75 CNS, 6.36 µM; with TK-10 renal, 36.6 µM; in the assay with MALME-3M melanoma, 9.96 µM; in the assay with SF-539 CNS, 3.15 µM; with A498 renal it was 32.1 µM. The GI50 with CAKI-1 renal is 14.8 µM; in the assay with CCRF-CEM leukemia it was 5.45 µM; with HCT-15 colon, 4.06 µM. Moreover, the TGI was 56.8 µM in the assay with HL-60(TB) leukemia; greater than 100 µM with SNB-75 CNS; 86.3 µM in the assay on TK-10 renal; greater than 100 µM in the assay with MALME-3M melanoma; 8.75 µM with SF-539 CNS; 97.4 µM with A498 renal. For the same compound, the results for the TGI in the assay with CAKI-1 renal, with CCRF-CEM leukemia and in the assay with HCT-15 colon were 42.2 µM, greater than 100 µM and 39.7 µM, respectively.

On to `O=C(CCCCCCC(=O)Nc1ccc(N(CCCl)CCCl)cc1)NO`, for which the GI50 in the assay on SNB-75 CNS is 1.35 µM; in the assay with MALME-3M melanoma it was 0.507 µM; in the assay on SF-539 CNS, 2.38 µM; in the assay on A498 renal, 3.11 µM; in the assay with BT-549 breast, 5.83 µM; in the assay on CAKI-1 renal it was 1.2 µM. Moreover, the values for the GI50 with CCRF-CEM leukemia and in the assay on HCT-15 colon were 0.405 µM and 18.9 µM, respectively. Besides, the TGI was determined as 10.1 µM with SNB-75 CNS; 5.6 µM in the assay on MALME-3M melanoma; 14.7 µM in the assay with SF-539 CNS; 13.1 µM in the assay with A498 renal; 29.2 µM in the assay with BT-549 breast; 11.2 µM in the assay on CAKI-1 renal. Also, the TGI in the assay with CCRF-CEM leukemia and with HCT-15 colon was greater than 100 µM each time.

For the compound `COc1cc(C=C2C(C)=NN(c3cccc(Cl)c3)C23SCC(=O)N3c2nc3ccccc3s2)ccc1O` (centres undefined), the TGI in the assay on HL-60(TB) leukemia is 26.7 µM; with TK-10 renal it was greater than 100 µM; with MALME-3M melanoma, 47.6 µM; in the assay with SF-539 CNS it was greater than 58.4 µM; with A498 renal, 66 µM; in the assay on BT-549 breast it was 58.8 µM. The TGI in the assay on CAKI-1 renal is greater than 96.2 µM; in the assay with CCRF-CEM leukemia, 15.8 µM; with HCT-15 colon it was greater than 93.6 µM.

As to `COc1ccc2nc(-c3ccc(-c4noc(-c5cc(OC)c(OC)c(OC)c5)n4)cc3)[nH]c2c1`, the GI50 with HL-60(TB) leukemia was 20.2 µM; with SNB-75 CNS it was 12.5 µM; with TK-10 renal, 4.62 µM; with MALME-3M melanoma, 1.67 µM; in the assay on SF-539 CNS, 2 µM; in the assay with A498 renal, 28 µM. Besides, the GI50 in the assay with CAKI-1 renal was 23.4 µM; with CCRF-CEM leukemia, 2.2 µM; in the assay with HCT-15 colon, 1.49 µM. Further, the TGI with HL-60(TB) leukemia was 81.7 µM; in the assay with SNB-75 CNS, 27.4 µM; in the assay with TK-10 renal, 13 µM; with MALME-3M melanoma it was 7.51 µM; in the assay on SF-539 CNS it was 3.83 µM; in the assay on A498 renal, greater than 100 µM. In addition, the TGI in the assay with CAKI-1 renal was 54.9 µM; in the assay with CCRF-CEM leukemia, greater than 100 µM; in the assay with HCT-15 colon, 13.3 µM.

On to `CNC(=O)OC(C)CN1c2ccccc2Sc2ccc(Cl)cc21` (centres undefined), for which the TGI in the assay with HL-60(TB) leukemia, with SNB-75 CNS, in the assay with TK-10 renal, with MALME-3M melanoma, in the assay on SF-539 CNS and with A498 renal was greater than 10 µM throughout. The TGI with CAKI-1 renal, in the assay on CCRF-CEM leukemia and with HCT-15 colon was greater than 10 µM each time.

As to `COc1cc(/C=C/C(=O)c2ccc(NS(=O)(=O)c3cc([N+](=O)[O-])ccc3C)cc2)cc(OC)c1OC`, the TGI was 11.1 µM in the assay with HL-60(TB) leukemia; 14.2 µM in the assay with SNB-75 CNS; 13.9 µM with TK-10 renal; 6.3 µM in the assay with SF-539 CNS; 14.4 µM with BT-549 breast; 17.3 µM with CAKI-1 renal. For the same compound, the TGI came to 7.48 µM with CCRF-CEM leukemia and 13.4 µM in the assay on HCT-15 colon.

As to `Cn1c(=O)c2c(nc(-n3nc(-c4ccc(Cl)cc4)cc3N)n2C)n(C)c1=O`, the TGI was greater than 100 µM in the assay on HL-60(TB) leukemia; greater than 100 µM in the assay on TK-10 renal; 83.2 µM in the assay with MALME-3M melanoma; 69.4 µM in the assay with SF-539 CNS; greater than 100 µM in the assay with A498 renal; greater than 100 µM with BT-549 breast. In addition, the TGI in the assay with CAKI-1 renal, with CCRF-CEM leukemia and in the assay with HCT-15 colon was greater than 100 µM in each case.
